Broadly, the pKa is the pH at which an ionisable group is half protonated. In general, IC50 refers to the concentration that gives 50% inhibition.

We go through six compounds from patent US20040039211A1, “Tetrapyrroles” (DUKE UNIVERSITY AND NATIONAL JEWISH MEDICAL AND RESEARCH …, priority 2000, published 2004).

Marks after values point to notes of the source that are not given here.

Series [1] in a line: Hydrolysis / dissociation of the complex in methanol/aqueous or water solution. It counts as physicochemical. Conditions: water. How it is done: Uv/vis Spectroscopy. […] Also the effects of EDTA, H2O2, and the methanol/water ratio on the stability of the manganese(III) complex were examined. […] […] 79:699 (1960)). When needed the biliverdin and biliverdin dimethylester as well as their reduced forms bilirubin and bilirubin dimethylester were studied. […] In a week, at 25° C., only 14% of the complex dissociated. When the water content was increased to 43%, half the complex dissociated in a week.

Series [2] can be described thus: pH* titration / protonation of the ligand. It counts as physicochemical. Conditions: 90/10 methanol/aqueous solution, 0.01 M tris and Pipes buffer. The procedure: Uv/vis Spectroscopy. […] Also the effects of EDTA, H2O2, and the methanol/water ratio on the stability of the manganese(III) complex were examined. […] Tris and Pipes buffers along with 1.0 M methanol/aqueous (90/10) solution of HCl were used for pH^* adjustments in methanol/aqueous solutions. The pH^* readings were measured on an Oakton pH-Meter equipped with a Denver Instruments combination glass electrode that was calibrated in methanol/water (90/10, v/v) buffer solutions: 10 mM oxalic acid/10 mM ammonium oxalate (pH^*=3.59) and 10 mM succinic acid/lithium hydrogen succinate (pH^*=6.55) (De Ligny et al. A. Rec. Trav. Chim. Pays-Bas 79:699 (1960)). When needed the biliverdin and biliverdin dimethylester as well as their reduced forms bilirubin and bilirubin dimethylester were studied.
Uv/Vis Spectroscopy. At pH^* 7.4 biliverdin dimethylester is in a fully deprotonated form, BVDME^3−. […] Carboxyl groups are separated from the main chromophores by two methylene groups, so that their ionization is not detectable spectrophotometrically. Thus the spectra of biliverdin and its ester are the same (Gray et al, J. Chem. Soc. 2276 (1961); Kuenzle et al. Biochem. J. 130:1147 (1972); O'Carra, Nature 899 (1962)). […] The kinetic trace recorded upon fast mixing of the 30 μM BVDME^3− with 75 μM or 150 μM MnCl2, fits to a single-exponential equation with a zero intercept. […]

In series [3] the test system is SOD-deficient E. coli JI132. The experiment in a line: Aerobic growth of SOD-deficient E. coli in minimal medium. It counts as cell-based. The note with it: minimal (five amino acids) medium. How it is done:
FIG. 13. […] The 20 mM ethanolic/albumin solution of compound was diluted into the medium. Also the growth of SOD-deficient E. coli was followed in the presence of 0.15% ethanol only (squares).
SOD activity can be monitored in the presence and absence of EDTA using the method of McCord and Fridovich (J. Biol. Chem. 244:6049 (1969)). The efficacy of a mimetic can also be determined by measuring the effect of the mimetic on the aerobic growth of a SOD null E. coli strain versus a parent strain. Specifically, parental E. coli (AB1157) and SOD null E. coli. […]
Effects on E. coli. E. coli strains AB1157 (SOD-proficient, wild type) and JI132 (SOD-deficient, sodAsodB) were obtained from J. A. Imlay (Imlay et al, J. Bacteriol. 169:2967 (1987)). […] Cultures were treated as previously described (Faulkner et al, J. Biol. Chem. 269:23471 (1994); Benov et al, J. Biol. Chem. 273:10313 (1998)). Due to the low water solubility, the compounds were solubilized with albumin in medium at a 1:1 molar ratio. Albumin itself had no effect on growth in the concentration range employed. Since methanol was toxic to the SOD-deficient strain of E. coli even when present in medium at 0.15%, the stock solutions of the compounds were prepared in ethanol.

Series [4] is described as follows: SOD activity, xanthine oxidase/cytochrome c method. It counts as biochemical. The note with it: for SOD-like activity (in words): 0.05 M phosphate buffer, pH 7.8, 0.1 mM EDTA. The procedure: FIG. 12. […] The v0 is the rate of reduction of 10 μM cytochrome c by O2. The vi is the rate of reduction of cytochome c inhibited by the porphyrin catalyst in the presence of 0.1 mM EDTA in 0.05 M tris buffer at pH 7.8. 40 μM xanthine. ˜2 nM xanthine oxidase at 25° C. The total volume of the assay solution is 3 mL.
SOD Activity. Catalysis of the dismutating of O2 in vitro was followed by the xanthine oxidase/cytochrome c method (McCord et al, J. Biol. Chem. 244:6049 (1969)).
Dismutation of superoxide anion, O2^−. Assays were conducted in 0.05 M aqueous phosphate buffer, pH 7.8, 0.1 mM EDTA, ±15 μg/mL of catalase, ±albumin. Rate constants for the reaction with O2^−were based upon the competition of the compounds with cytochrome c.
(§1) Two metallotetrapyrroles were tested for antioxidant activity, in vitro. In particular, the compounds were assayed for their ability to dismutate superoxide in the indirect method that utilizes xanthine and xanthine oxidase to generate superoxide and cytochrome c reduction as indicator of superoxide flux. […] The compounds were also assayed for their ability to prevent lipid peroxidation of rat brain homogenates by iron and ascorbate. The mixture of iron and ascorbate generates reactive oxygen species that oxidize biological lipids and these oxidized lipids can be detected as species that react with thiobarbituric acid (TBARS).
a) SOD activity determined using a xanthine oxidase/cytochrome c assay

A short description of series [5]: SOD activity, xanthine oxidase/cytochrome c method. It counts as biochemical. The note with it: absence of EDTA.
Series [6] in a line: Cyclic voltammetry, metal-centered redox potential. It counts as physicochemical. The note with it: Mn(III)/Mn(II) couple. How it is done:
Manganese(III) Salen. The compound was prepared by the published procedure (Boucher, J. lnorg. Nucl. Chem. 36:531 (1974)). The uv/vis in water: ε235=3.70×10^4 cm^−1 M^−1, ε279=1.70×10^4 cm^−1 M^−1, ε397=4.60×10^3 cm^−M^−1. The elemental analysis: Anal. Calcd for Mn^IIIsalenCl, C16H14N2O2MnCl: C, 53.88; H, 3.96; N; 7.85. Found: C, 54.02; H, 4.06; N, 7.85. […] Based on the E1/2 of Mn^IIITM-2-PyP^5+, ferrocenemethanol and of K3Fe(CN)6 in water and methanol, the redox potential of Mn^III salen^+ in water was calculated to be E1/2=−0.13 V vs NHE.
Electrochemistry of the Manganese(III) Biliverdin Dimethylester. Measurements were made using a CH Instruments model 600 voltammetric analyzer as described previously(Batinic-Haberle et al, Inorg. Chem. 38:4011 (1999)). A three-electrode system in a small volume (0.5-3.0 mL), with a 3 mm diameter glassy carbon button working electrode (Bioanalytical Systems), Ag/AgCl reference electrode (3 M NaCl, Bioanalytical Systems), and a Pt wire (0.5 mm) as auxiliary electrode, were used. The cyclic votammetry was performed on 0.5 mM (per manganese) methanol/aqueous (90/10, v/v) solutions of the compounds investigated. The ionic strength was kept at 0.10 M (NaCl), and 0.05 M tris buffer was used for pH^* adjustment. For calibration purposes, compounds of different hydrophilicities, […], (Kolthof et al, J. Phys. Chem. 39:945 (1935)) ferrocenemethanol and Mn^IIITM-2-PyP^5+ were studied in both aqueous and methanol/aqueous (90/10, v/v) solutions (I=0.10 M NaCl, 0.05 M tris buffer, pH^* 7.9). In all cases the measured E1/2 was 170 mV more positive in methanolic than in aqueous solution and this value was used to predict the redox potential in aqueous solution from measurement in methanol/aqueous solution.

A short description of series [7]: Degradation by H2O2 followed by uv/vis spectroscopy. The note with it: pH 7.8; for fraction degraded by H2O2: 4.4 h, 60 μM. It counts as physicochemical. The source says:
Uv/vis Spectroscopy. […] Also the effects of EDTA, H2O2, and the methanol/water ratio on the stability of the manganese(III) complex were examined. […] 79:699 (1960)). When needed the biliverdin and biliverdin dimethylester as well as their reduced forms bilirubin and bilirubin dimethylester were studied. At μM concentrations, manganese(III) and iron(III) porphyrins are degraded by H2O2 in aqueous solution. pH 7.8 (Batinic-Haberle et al, Inorg. Chem. 38:4011 (1999), Everett et al, J. Trans. Faraday Soc. 49:410 (1953)). […] The reaction was followed in 90/10, v/v methanouaqueous solution at pH^* 7.9. […] The uv/vis spectroscopy indicated degradation via the reduction of biliverdin to bilirubin followed by loss of metal (Gray et al, J. Chem. Soc. 2276 (1961); Kuenzle et al, Biochem. J. 130:1147 (1972); […], Nature 899 (1962)). The interaction of biliverdin and bilirubin with H2O, was also followed in 0.05 M tris buffer, pH 7.8. As observed for its metal complex, biliverdin undergoes reduction by H2O2 via bilirubin. Under pseudo-first order conditions (6 mM to 60 mM H2O2, 60 μM biliverdin), the second-order rate constant was k=3×10^-3 M^-1 s^-1. Bilirubin is more resistant to H2O2 than biliverdin or its metal complex. The disappearance of bilirubin was followed at 435 nm (Gray et al, J. Chem. Soc. 2268 (1961)). Under conditions given above and at 60 mM H2O2, about 40% of the biliverdin and 14% of bilirubin was degraded within 4.4 hours, and about 14% of the complex was degraded inside 80 min.

The conditions of series [8]: H4BV^+; literature (Gray et al; Kuenzle et al; O'Carra); cited from earlier work.
Series [9] relates to rat brain homogenates. The experiment in a line: Lipid peroxidation of rat brain homogenates by iron/ascorbate (TBARS). The note with it: concentration that reduced lipid peroxidation by one-half. It counts as biochemical. The procedure: The ability of mimetics to inhibit lipid peroxidation can be assessed as described by Day et al, Free Rad. Biol. Med. 26:730 (1990). Iron and ascorbate can be used to initiate lipid peroxidation in tissue homogenates and the formation of thiobarbituric acid reactive species (T BARS) measured.
as §1, with “(TBARS). Both compounds could inhibit the formation of TBARS and this ability correlated with their superoxide dismutase (SOD) activity (Table 5).” for “(TBARS).”
b) Lipid peroxidation was initiated in rat brain homogenates with iron/ascorbate and the IC50 is the concentration of compound that reduced lipid peroxidation by one-half.

On to `C=CC1=C(C)C2=CC3=NC(=Cc4c(CCC(=O)O)c(C)c5[n]4[Mn]([O]C4=NC(=Cc6c(C)c(CCC(=O)O)c7[n]6[Mn]([O]C6=NC(=C5)C(C=C)=C6C)[N]5C(=O)C(C=C)=C(C)C5=CC5=NC(=C7)C(CCC(=O)O)=C5C)C(C=C)=C4C)[N]2C1=O)C(CCC(=O)O)=C3C` [(Mn^IIIBV)2, Mn^III Biliverdin], for which, in [1], the “stability in water solution” value is reported as “lacks adequate stability in water solution”.
In the case of `C=CC1=C(C)/C(=C/C2=NC(=C\c3[nH]c(/C=C4/NC(=O)C(C)=C4C=C)c(C)c3CCC(=O)OC)/C(CCC(=O)OC)=C2C)NC1=O` [BVDME^3−, Biliverdin IX dimethylester, reference compound], the “pH* region in which protonation occurs” value in series [2] is listed as “below 4”. Also, the “effect on SOD-deficient E. coli growing under aerobic conditions (in words)” value in series [3] was “neither beneficial nor toxic”.
In the case of `[Cl-].[Mn+3].[O-]c1ccccc1C=NCCN=Cc1ccccc1[O-]` [Mn^III/IIsalen^−/0, Manganese(III) Salen, reference compound], the “SOD-like activity (in words)” value in [4] was “observed only in the absence of chelator”. For the same compound, the SOD specific activity in series [5] is listed as 700^f U/mg. The “kcat, O2^− dismutation” value in series [5] (25° C.) was 6.0 × 10^5f M^−1 s^−1. Further, in series [6] (90/10 (v/v) methanol/aqueous solution, pH* 7.9), the “E1/2, V vs Ag/AgCl” value is on record as −0.23 V vs Ag/AgCl. Also, the “E1/2, V vs NHE” value in series [6] (extrapolated/calculated redox potential in aqueous solution) is listed as −0.13 V vs NHE.
With `C=CC1=C(C)/C(=C/c2[nH]c(Cc3[nH]c(/C=C4\NC(=O)C(C)=C4C=C)c(C)c3CCC(=O)O)c(CCC(=O)O)c2C)NC1=O` [bilirubin, bilirubin IX], in series [7], the “fraction degraded by H2O2” value is reported as “about 14%”.
Consider `C=CC1=C(C)/C(=C/C2=NC(=C\c3[nH]c(/C=C4\NC(=O)C(C)=C4C=C)c(C)c3CCC(=O)O)/C(CCC(=O)O)=C2C)NC1=O` [biliverdin, biliverdin IX], for which the pKa in series [8] was approximately 3. In addition, the “SOD-like activity (in words)” value in series [4] is “Neither biliverdin nor bilirubin showed any observable SOD-like activity”. In [7] (0.05 M tris buffer, 6 mM to 60 mM H2O2, 60 μM), the “second-order rate constant k of reaction with H2O2” value came out at 0.003 M⁻¹ s⁻¹. Further, the “fraction degraded by H2O2” value in [7] is on record as “about 40%”.
For the compound “manganese (III) bilirubin ditaurate [MnBRDT]”, the “SOD Activity” value in series [4] (xanthine oxidase/cytochrome c assay) worked out at 6.2 USOD/mg. In series [9], this compound returned an IC50 of 70 µM.
